Reference: US6900198B2, “Synthetic catalytic free radical scavengers useful as antioxidants for prevention and therapy of disease” (Eukarion, Inc., priority 1995, dated 2005)

What was measured:
Rat brain slices = test: Rat brain slice ischemia EPSP system; format: cell-based; conditions: 50 μM; untreated slices recovered only about 40%
Experimental: A widely used assay to determine the therapeutic potential of molecules in brain ischemia (stroke) consists of evaluating their ability to prevent irreversible damage induced by an anoxic episode in brain slices maintained under physiological conditions. Rat brain slices were maintained at 35° C. in an interface chamber in an artificial cerebrospinal fluid containing: 124 mM NaCl, 3 mM KCl, 1.25 mM KH2PO4, 3 mM CaCl, 1 mM MgCl2, 26 mM NaHCO3, 10 mM D-glucose, and 2 mM L-ascorbate, continuously gassed with a mixture of O2:CO2 (95:5). The atmosphere of the chamber was also continuously gased with the mixture of O2:CO2 (95:5), except during the anoxic episode when it was replaced by N2. Axons were electrically stimulated and the evoked excitatory post-synaptic potentials (EPSPs) were recorded using microelectrodes.
The extent of permanent damage can be quantified by measuring both the amplitude (in mV) and the initial slope (in mV/msec) of the EPSP.
After 5 minutes of baseline recording, O2 was replaced by N2 for an average of 5 minutes. O2 was then reintroduced and recording was continued for another 50 minutes. […] In contrast, recovery in untreated brain slices was only about 40% of pre-ischemia levels.
As an additional assessment of efficacy, the percentage of viable slices following repeated ischemic episodes was evaluated. […]

SJL female mice = test: Experimental Autoimmune Encephalitis (EAE); format: in vivo
Text: EAE is an animal model of multiple sclerosis.
Mice in both groups were immunized with an encephalitogenic PLP peptide in complete Freund's adjuvant subcutaneously, followed by Petrussis Toxin (IV). Petrussis toxin was repeated on day 3 post immunization.
Animals were scored as follows:
Stage I: Limp tail syndrome
Stage II: Hind leg paralysis
Stage III: Hind leg paralysis-Dragging movement
Stage IV: Paralytic immobility, weight loss

Hippocampal slices [1] = test: Lactic acid (acidosis)-induced lipid peroxidation in hippocampal slices; format: cell-based, Sprague-Dawley rats; conditions: 50 μM; 30 mM lactate, pH 5.0, 100 minutes
Experimental: Hippocampal slices (400 μm thick) were obtained from Sprague-Dawley rats (150-200 g) and collected in preoxygenated (95% O2/5% CO2) Krebs-Ringer phosphate medium (pH 7.4) containing NaCl 120 mM, KCl 5 mM, CaCl2 1.3 mM, MgCl2 1.2 mM, NaPhosphate 16 mM (pH 7.4) and glucose 10 mM. After 15 minutes preincubation in a water bath at 35° C. under agitation, the buffer was replaced with the same buffer (control) or a modified buffer (lactate buffer) containing NaCl 90 mM, KCl 5 mM, CaCl2 1.3 mM, MgCl2 1.2 mM, NaPhosphate 16 mM and lactic acid 30 mM (pH 5.0). […] After 100 minutes, slices were collected and homogenized in 0.9 ml of TCA 5%, whereas 0.35 ml of TCA 5% was added to 0.5 ml of the incubation medium. Lipid peroxidation was measured by adding 0.25 ml of a thiobarbituric acid reagent (TBAR) to 0.85 ml of the TCA extracts and incubating the mixture for 60 minutes at 85-93° C. Lipids were then extracted with 2×0.5 ml 1-butanol by vortexing for 10 seconds, then centrifuging at 2,000 rpm for 10 minutes. The absorbance of peroxidized lipids in the alcohol phase was measured in a spectrophotometer at 532 nm. Data were expressed as nmoles of malondialdehyde (MDA) using authentic MDA to establish a standard curve. Proteins were measured from an aliquot of the TCA extracts using the method of Bradford and the final results were calculated as nmoles MDA formed/mg protein. […]

Hippocampal slices [2] = test: Anoxia in hippocampal slices, EPSP recovery; format: cell-based, Sprague-Dawley rats; conditions: C7 50 μM
Text: Anoxia in hippocampal slices. […] A glass recording micropipet was positioned in CA1 stratum radiatum to record excitatory postsynaptic potential (EPSPs) generated by electrical stimulation of the Schaffer-commissural pathway by a bipolar stimulation electrode at a frequency of 0.033 Hz. During anoxic episodes, the oxygen supply was replaced with 100% N2 gas. N2 was supplied for 90 seconds following electrical silence after which O2 was reintroduced. Recovery of EPSPs (both slope and amplitude) was recorded for 50 minutes, at which time the final viability of the slices was determined, with viability being defined as the ability of the slice to generate a 3 mV EPSP.

[3] = C7 inactivation in H2O2, HPLC; format: physicochemical
Experimental: Where indicated, 1 mM ABTS was also present. Components were mixed and, after various incubations times, a 30 μl aliquot was injected onto the HPLC. The mixtures were chromatographed on an octadecyl-silica column using a mobile phase consisting of 60% methanol:40% 0.1 M NaCl and a flow rate of 1 ml/min. […] A third component, with a retention time of 4.8 min, was detectable under some conditions; its appearance and disappearance was monitored but it was not further analyzed. In this system, ABTS and its oxidized product had retention times of 3.4 and 3.1-min, respectively, well resolved from the peaks of interest. Absorbance spectra collected during each run allowed the identity of C7 and salicylaldehyde to be verified. All peaks were integrated based upon their absorbance at 240 nm. The results are expressed as the percentage of maximum peak area. […] For the two putative breakdown products, this is equivalent to the largest peak observed during the course of the ˜2000 sec incubation period.

[4] = cited from earlier work
[5] = 100 μM C7, 1 mM H2O2, with 1 mM ABTS

## [Cl][Mn]1[O]c2ccccc2C=NCCN=Cc2ccccc2[O]1 [Compound C7]
Rat brain slices
  recovery of EPSP amplitude and slopes after ischemia/reoxygenation: recovered to pre-ischemia levels
SJL female mice; fifth week, three weeks after treatment was stopped, group of 10 mice
  mice that developed symptomatic EAE: six
SJL female mice; third week following immunization, 1 mg/mouse daily IP, control 8 of 20
  mice that developed symptomatic EAE: one of 10
Hippocampal slices [1]
  lactate-induced increase in lipid peroxidation (malondialdehyde): totally abolished the increase in lipid peroxidation
Hippocampal slices [2]
  protection against anoxia-induced decrease in synaptic response in CA1 (EPSP slope and amplitude): significant degree of protection
[3]; 100 μM C7, 1 mM H2O2, pH 8.1, absence of ABTS
  half life of the C7 peak: ~40 s
[3]; [5]
  C7 peak that disappeared rapidly: about 20%
  C7 remaining over the entire ~2000 sec incubation: 80%
[4]
  SOD activity previously found: about 769 units/mM
